Assay: Administration of clenbuterol to patients with autistic symptoms (case examples)
Assay type: in vivo, autistic children
Procedure: A patient with autistic symptoms in the form of disorders of social integration, verbal and non-verbal communication, play disorders and concomitant anxiety, especially when changing environment, was administered clenbuterol at a dose of ¼ tablet containing 20 μg of clenbuterol once daily for a period of 3 months.
A patient with pediatric autism and cerebral palsy was administered the medication at a dose of ¼ of 20 μg tablet twice daily for a period of 12 months.
A patient with early pediatric autism, psychomotor hyperactivity syndrome and speech development delay was administered clenbuterol at a dose of ¼ of 20 μg tablet once daily for a period of 12 months.
It has been assumed that clenbuterol, modulating the brain neurotransmitter systems, affects also the endocrine and immunological system. As a result, alleviation of communication disorders and improved contact with surroundings is observed in autistic children.

## CC(C)(C)NCC(O)c1cc(Cl)c(N)c(Cl)c1 (racemic) [clenbuterol, (RS)-1-(4-amino-3,5-dichlorophenyl)-2-(tert-butylamino)ethanol]
Administration at very small doses to autistic children
  Overall effects observed in autistic children: Improved contact with surroundings, better concentration, improved ability to plan a specific task, improved understanding, calming, and reduced psychomotor anxiety were observed
Administration of effective amounts of clenbuterol or its pharmaceutically effective salt
  Effect on functional disorders related to ASD: seems to practically alleviate functional disorders related to ASD
long-term administration of clenbuterol or its pharmaceutically acceptable salt
  Adverse effects: no adverse effects associated with medications previously used in treatment of autism were observed
Patient with autistic symptoms, 1/4 tablet containing 20 μg once daily for 3 months
  Change in autistic symptoms after therapy (interest in environment, contact with surroundings, anxiety): increased interest in the environment was observed; the child's contact with surroundings improved and its anxiety symptoms decreased
Patient with early pediatric autism, psychomotor hyperactivity syndrome and speech development delay, 1/4 of 20 μg tablet once daily for 12 months
  Change in autistic symptoms after treatment (speech expression, psychomotor anxiety, grimacing): Improvement in speech expression was achieved as well as reduction of psychomotor anxiety and grimacing
Patient with pediatric autism and cerebral palsy, 1/4 of 20 μg tablet twice daily for 12 months
  Change in autistic symptoms after treatment (understanding, concentration, attention, speech): improvement with respect to understanding, concentration, attention, and speech

Reference: patent publication US9364450B2, “Clenbuterol for use in treatment of autism” (STOW[…]. CELESTYNA, priority 2011, dated 2016)
